Among the data in patent publication US11584759B2, “Macrocyclic kinase inhibitor” (HITGEN INC., priority 2018, dated 2023) are ring closure, yield of all isomers, IC50 and IC90 values, retold here.

One series has as its target T1, TRKA Protein (wild type) (Homo sapiens, UniProt P04629).
T1 construct: purchased abcam ab60887
Briefly: Detection of TRK inhibitory activity (ADP-Glo kinase assay), TRKA wild type. The class given is biochemical. The settings on record: 35 min at room temperature. The procedure: (§1) An enzyme reaction buffer was prepared containing 25 mM MOPS, 5 mM MgCl2, 500 μM DTT and 0.005% Triton, and then adjusted to pH 7.5.
(§2) The test compound was diluted with DMSO to 200 times of the desired final concentration, and mixed evenly, then 3 μL of the solution was pipetted to 117 μL of enzyme reaction buffer and mixed thoroughly. Then, 3 μL of the enzyme reaction buffer containing the test compound was pipetted to a 96-well PCR plate. The positive and negative control wells were filled with 3 μL of enzyme reaction buffer containing 2.5% DMSO, respectively. TRK protein was diluted to 0.4 ng/μL with the enzyme reaction buffer, and 6 μL of diluted TRK protein was added to each well except for the well for the blank control group, in which 6 μL of the enzyme reaction buffer was added. The reaction plate was centrifuged at 1000 rpm/min for 1 minute, and the compound and TRK were pre-incubated at room temperature for 10 minutes. A mixed solution with ATP at a concentration of 160 μM and substrate at a concentration of 1 μM was prepared with the enzyme reaction buffer, and 6 μL of the mixed solution was added to each reaction well. The reaction plate was centrifuged at 1000 rpm/min for 1 minute, and incubated at room temperature for 35 minutes. After the enzyme reaction was completed, 15 μL of ADP-Glo was added to each reaction well. The reaction plate was centrifuged at 1000 rpm/min for 1 minute, and incubated at room temperature for 40 minutes. Then 15 μL of the reaction solution from each well was transferred to a 384-well plate, and then 15 μL of detection substrate was added to each corresponding well of the 384-well plate. The 384-well plate was centrifuged at 1000 rpm/min for 1 minute, and incubated at room temperature for 40 minutes. After the reaction, a microplate reader was used to read the cold luminescence signal value in the 384-well plate.
(§3) The residual viability percentage of each concentration was calculated with the following formula: Residual viability (%)=100*(Lumincompond−Luminblank control)/(Luminpostive control−Luminblank control)
(§4) Then, GraphPad 5.0 was fitted to the effect curve to calculate the IC50 value.
Background: ADP-Glo first removes unused ATP, then detects ADP through luciferase.

The next series concerns the target TRKA (G667C) (Homo sapiens, UniProt P04629, G667C). Briefly: Detection of TRK inhibitory activity (ADP-Glo kinase assay), TRKA (G667C). The class given is biochemical. The method, then: as §1, §2, §3, §4
For series [1], the system named is Ba/F3 ETV6-NTRK3-G623R cell line. Briefly: Cell experiment, CellTiter-Glo viability, Ba/F3 ETV6-NTRK3-G623R. The class given is cell-based. The settings on record: Mus musculus, BaF3, 72 hours, CTG. The procedure:
Cell culture and seeding: (1) cells in logarithmic growth phase were harvested and counted using a […]. The cell viability was detected by trypan blue exclusion method to ensure that the cell viability was above 90%. (2) The cell concentration was adjusted; and 90 μl of cell suspension was added to the 96-well plate.
10 μl of drug solution was added to each well in a 96-well plate inoculated with cells, triplicate per concentration.
End-point for reading: (1) The CTG reagent was thawed and the cell plate was equilibrated to room temperature for 30 minutes. (2) Equal volume of CTG solution was added to each well. (3) The plated was shaken on an orbital shaker for 5 minutes to lyse the cells. (4) The cell plate was placed at room temperature for 20 minutes to stabilize the cold light signal. (5) The cold light value was read.
GraphPad Prism 7.0 software was used to analyze the data, and nonlinear S-curve regression was fitted the data to get the dose-effect curve, and the IC50 value was calculated therefrom. Cell survival (%)=(Lumtest drug−Lumculture control)/(Lumcell control−Lumculture control)×100%.

pIC50: −log10 of the molar value. Where two headings read alike, the source gives them in different places.

T1 sequence (P04629 33-796): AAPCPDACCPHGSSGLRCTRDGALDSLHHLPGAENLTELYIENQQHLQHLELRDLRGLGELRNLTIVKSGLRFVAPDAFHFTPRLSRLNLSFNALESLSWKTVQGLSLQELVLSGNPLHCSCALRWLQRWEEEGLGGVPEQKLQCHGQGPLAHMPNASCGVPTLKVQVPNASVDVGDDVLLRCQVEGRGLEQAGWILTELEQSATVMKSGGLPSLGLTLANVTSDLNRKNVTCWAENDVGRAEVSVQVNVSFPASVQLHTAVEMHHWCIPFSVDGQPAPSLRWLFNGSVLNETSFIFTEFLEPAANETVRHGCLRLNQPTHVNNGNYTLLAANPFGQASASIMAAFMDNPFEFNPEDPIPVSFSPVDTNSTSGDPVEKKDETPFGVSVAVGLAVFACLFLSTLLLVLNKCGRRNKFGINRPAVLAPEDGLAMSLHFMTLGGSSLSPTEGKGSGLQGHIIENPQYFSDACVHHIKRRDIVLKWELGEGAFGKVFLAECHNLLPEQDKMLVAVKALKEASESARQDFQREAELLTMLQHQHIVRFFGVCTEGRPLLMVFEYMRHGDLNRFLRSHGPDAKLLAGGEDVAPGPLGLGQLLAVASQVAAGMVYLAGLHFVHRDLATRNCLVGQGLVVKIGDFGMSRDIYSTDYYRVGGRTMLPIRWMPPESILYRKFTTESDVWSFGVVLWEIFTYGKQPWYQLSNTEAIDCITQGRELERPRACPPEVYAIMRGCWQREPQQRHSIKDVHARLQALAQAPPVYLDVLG
Chain of TRKA (G667C) (P04629 33-796 G667C): as the sequence (P04629 33-796) above, with G635C counted along it

Compound `CCOC(=O)c1cnc2ccc3nc2c1N[C@H](C)CCOc1ccc(F)cc1[C@H]1CCCN31` returned a ring closure, yield of all isomers (from CCOC(=O)c1cnc2ccc(Cl)nc2c1N[C@H](C)CCOc1ccc(F)cc1[C@H]1CCCN1, cn_pd bond, Pd2(dba)3/SPhos/Cs2CO3, toluene, 64.4 mM, 100.0 °C, 16.0 h) of 54%.
Consider `COc1ccc(CN2CC[C@H](C)Oc3ccc(F)cc3[C@H]3CCCN3c3ccc4ncnc2c4n3)c(OC)c1`, for which, under “from COc1ccc(CN(CC[C@@H](C)O)c2ncnc3ccc(N4CCC[C@@H]4c4cc(F)ccc4O)nc23)c(OC)c1, ether bond, DIAD/triphenylphosphine (printed as triphenylphosphine oxide), tetrahydrofuran, 72.0 mM, 25.0 °C, 3.0 h”, the ring closure, yield of all isomers came out at 72.3%.
In turn, `C[C@H]1CCNc2c(C(=O)O)cnc3ccc(nc23)N2CCC[C@@H]2c2cc(F)ccc2O1` showed a ring closure, yield of all isomers (from C[C@@H](CCNc1c(C(=O)O)cnc2ccc(Cl)nc12)Oc1ccc(F)cc1[C@H]1CCCN1, cn_pd bond, Pd2(dba)3/SPhos/Cs2CO3, toluene, 62.5 mM, 100.0 °C, 16.0 h) of 52%.
For orientation: pIC50 means the IC50 on a negative log10 scale, so that one unit is a factor of ten. Turning to `C[C@H]1CCNc2c(C#N)cnc3ccc(nc23)N2CCC[C@@H]2c2cc(F)ccc2O1` [Example 2, (6R,14S)-9-fluoro-14-methyl-3-oxa-2,17,21,25-tetraazapentacyclo [16.6.2.0^2,^6.0^7,^12.0^22,^26]hexacosane-1(25),7,9,11,18(26),19,21,23-octane-19-nitrile], the pIC50 at TRKA Protein (wild type) and against TRKA (G667C) was > 7.30 throughout.
Turning to `CN1Cc2cc(F)ccc2OCCCNc2ncnc3ccc1nc23` [Example 3, 6-fluoro-2-methyl-10-oxa-2,14,16,18,22-pentaazatetracyclo [13.6.2.0^4,^9.0^19,^23] tricosane-1(22),4,6,8,15(23),16,18,20-octane], the pIC50 against TRKA Protein (wild type) and against TRKA (G667C) was > 7.30 throughout.
`CN1Cc2cc(F)ccc2OCCNc2ncnc3ccc1nc23` [Example 4, 6-fluoro-2-methyl-10-oxa-2,13,15,17,21-pentaazatetracyclo [12.6.2.0^4,9.0^18,^22]docosane-1(21),4,6,8,14(22),15,17,19-octane] had a pIC50 against TRKA Protein (wild type) of 6.30 to 7.30.
With `C[C@@H]1CCOc2ccc(F)cc2CN(C)c2ccc3ncnc(c3n2)N1` [Example 5, (13R)-6-fluoro-2,13-dimethyl-10-oxa-2,14,16,18,22-pentaazatetracyclo[13.6.2.0^4,^9.0^19,^23]tricosane-1(22),4,6,8,15(23),16,18,20-octane], the pIC50 against TRKA Protein (wild type) and against TRKA (G667C) was > 7.30 each time.
As a reminder, the IC90 is the concentration needed for an effect of 90%. A low value points to an effect from little substance. `C[C@@H]1CCOc2ccc(F)cc2[C@H]2CCCN2c2ccc3ncnc(c3n2)N1` [Example 6, (6R,16R)-9-fluoro-16-methyl-13-oxa-2,17,19,21,25-pentaazapentacyclo[16.6.2.0^2,^6.0^7,^12.0,^26]hexacosane-1(25),7,9,11,18(26),19,21,23-octane]: the pIC50 is 7.38 in series [1], > 7.30 against TRKA Protein (wild type) and > 7.30 on TRKA (G667C). This compound also yielded a 90% effect concentration (IC90) in series [1] of 94.2 nM.
For the compound `C[C@H]1CCNc2ncnc3ccc(nc23)N2CCC[C@@H]2c2cc(F)ccc2O1` [Example 7, (6R,14S)-9-fluoro-14-methyl-13-oxa-2,17,19,21,25-pentaazapentacyclo[16.6.2.0^2,^6.0^7,^12.0^22,^26]hexacosane-1(25),7,9,11,18(26),19,21,23-octane], the pIC50 was 8.44 in series [1], > 7.30 against TRKA Protein (wild type) and > 7.30 against TRKA (G667C). The same compound returned a 90% effect concentration (IC90) in series [1] of 8.7 nM.
On to `C[C@H]1CCOc2ccc(F)cc2[C@H]2CCCN2c2ccc3ncc(C#N)c(c3n2)N1` [Example 8, (6R,16S)-9-fluoro-16-methyl-3-oxa-2,17,21,25-tetraazapentacyclo [16.6.2.0^2,^6.0^7,^12.0^22,^26]hexacosane-1(25),7,9,11,18(26),19,21,23-octane-19-nitrile], for which the pIC50 against TRKA Protein (wild type) was > 7.30.
As for `CCOC(=O)c1cnc2ccc3nc2c1NCCCOc1ccc(F)cc1[C@H]1CCCN31` [Example 9, ethyl (6R)-9-fluoro-13-oxa-2,17,21,25-tetraazapentacyclo [16.6.2.0^2,^6.0^7,^12.0^22,^26]hexacosane-1(25),7,9,11,18(26),19,21,23-octane-19-carboxylate], the negative-log IC50 (pIC50) against TRKA Protein (wild type) is > 7.30; against TRKA (G667C), < 6.30.
In turn, `O=C(O)c1cnc2ccc3nc2c1NCCCOc1ccc(F)cc1[C@H]1CCCN31` [Example 10, (6R)-9-fluoro-13-oxa-2,17,21,25-tetraazapentacyclo [16.6.2.0^2,^6.0^7,^12.0^22,^26]hexacosane-1(25),7,9,11,18(26),19,21,23-octane-19-carboxylic acid] had a negative-log IC50 (pIC50) against TRKA Protein (wild type) of 6.30 to 7.30.
Consider `NC(=O)c1cnc2ccc3nc2c1NCCCOc1ccc(F)cc1[C@H]1CCCN31` [Example 11, (6R)-9-fluoro-13-oxa-2,17,21,25-tetraazapentacyclo [16.6.2.0^2,^6.0^7,^12.0^22,^26]hexacosane-1(25),7,9,11,18(26),19,21,23-octane-19-carboxamide], for which the pIC50 on TRKA Protein (wild type) and against TRKA (G667C) was > 7.30 throughout.
On to `N#Cc1cnc2ccc3nc2c1NCCCOc1ccc(F)cc1[C@H]1CCCN31` [Example 12, (6R)-9-fluoro-13-oxa-2,17,21,25-tetraazapentacyclo [16.6.2.0^2,^6.0^7,^12.0^22,^26]hexacosane-1(25),7,9,11,18(26),19,21,23-octane-19-nitrile], for which the negative logarithm of the IC50 (pIC50) on TRKA Protein (wild type) and against TRKA (G667C) was > 7.30 each time.
At TRKA Protein (wild type), `C[C@H]1CCOc2ccc(F)cc2[C@@H]2CCCN2c2ccc3ncc(C#N)c(c3n2)N1` [Example 13, (6S,16S)-9-fluoro-16-methyl-13-oxa-2,17,21,25-tetraazapentacyclo [16.6.2.0^2,^6.0^7,^12.0^22,^26]hexacosane-1(25),7,9,11,18(26),19,21,23-octane-19-nitrile] had a negative logarithm of the IC50 (pIC50) of 6.30 to 7.30.
The same measure, in the same setting: the figure for `C[C@@H]1CCOc2ccc(F)cc2[C@@H]2CCCN2c2ccc3ncc(C#N)c(c3n2)N1` [Example 14, (6S,16R)-9-fluoro-16-methyl-3-oxa-2,17,21,25-tetraazapentacyclo [16.6.2.0^2,^6.0^7,^12.0^22,^26]hexacosane-1(25),7,9,11,18(26),19,21,23-octane-19-nitrile] is 6.30 to 7.30.
Turning to `Fc1cnc2c(c1)[C@H]1CCCN1c1ccc3ncnc(c3n1)NCCCC2` [Example 15, (6R)-9-fluoro-2,11,17,19,21,25-hexaazapentacyclo [16.6.2.0^2,^6.0^7,^12.0^22,^26]hexacosane-1(25),7,9,11,18(26),19,21,23-octane], the pIC50 against TRKA Protein (wild type) and against TRKA (G667C) was > 7.30 throughout.
For `C[C@@H]1CCCc2ncc(F)cc2[C@H]2CCCN2c2ccc3ncnc(c3n2)N1` [Example 16, (6R,16R)-9-fluoro-16-methyl-2,11,17,19,21,25-hexaazapentacyclo [16.6.2.0^2,^6.0^7,^12.0^22,^26]hexacosane-1(25),7,9,11,18(26),19,21,23-octane], the pIC50 at TRKA Protein (wild type) and at TRKA (G667C) was > 7.30 each time.
`C[C@H]1Nc2ccc3ncnc(c3n2)NCCCOc2ccc(F)cc21` [Example 17, 6-fluoro-3-methyl-10-oxa-2,14,16,18,22-pentaazatetracyclo [13.6.2.0^4,^9.0^19,^23] tricosane-1 (22),4,6,8,15(23),16,18,20-octane]: the pIC50 against TRKA Protein (wild type) and at TRKA (G667C) was > 7.30 each time. Further, where the note is “from C[C@@H](N)c1cc(F)ccc1OCCCNc1ncnc2ccc(Cl)nc12, cn_pd bond, Pd2(dba)3/SPhos/Cs2CO3, toluene, 12.2 mM, 110.0 °C, 16.0 h”, the ring closure, yield of all isomers amounted to 5.4%.
`C[C@@H]1CCOc2ccc(F)cc2[C@@H](C)Nc2ccc3ncc(F)c(c3n2)N1` [Example 18, (R,R)-6,16-difluoro-3,13-dimethyl-10-oxa-2,14,18,22-tetraazatetracyclo[13.6.2.0^4,^9.0^19,^23]tricosane-1(22),4,6,8,15(23),16,18,20-octane]: the pIC50 against TRKA Protein (wild type) and against TRKA (G667C) was > 7.30 throughout. The same compound returned a ring closure, yield of all isomers (from C[C@H](CCOc1ccc(F)cc1[C@@H](C)N)Nc1c(F)cnc2ccc(Cl)nc12, cn_pd bond, SPhos Pd G3/SPhos/Cs2CO3, toluene, 90.0 mM, 100.0 °C, 16.0 h) of 8.2%.
